Test results taken from paper PMC9844320, “Novel CaLB-like Lipase Found Using ProspectBIO, a Software for Genome-Based Bioprospection” (BioTech, 2023).

Legend:
rLipB = biological target: T1, rLipB (Moesziomyces antarcticus, UniProt P41365); assay: spectrofluorimetric release of 4-methylumbelliferone by lyophilized culture supernatant; assay type: biochemical; settings: pH 7, 0.05 M phosphate, 45 °C; crude lyophilized supernatant
T1 construct: recombinant CaLB secreted constitutively (PGK promoter) by Pichia pastoris; lyophilized culture supernatant, gift of LaBiM, not purified
T1 sequence (P41365 26-342): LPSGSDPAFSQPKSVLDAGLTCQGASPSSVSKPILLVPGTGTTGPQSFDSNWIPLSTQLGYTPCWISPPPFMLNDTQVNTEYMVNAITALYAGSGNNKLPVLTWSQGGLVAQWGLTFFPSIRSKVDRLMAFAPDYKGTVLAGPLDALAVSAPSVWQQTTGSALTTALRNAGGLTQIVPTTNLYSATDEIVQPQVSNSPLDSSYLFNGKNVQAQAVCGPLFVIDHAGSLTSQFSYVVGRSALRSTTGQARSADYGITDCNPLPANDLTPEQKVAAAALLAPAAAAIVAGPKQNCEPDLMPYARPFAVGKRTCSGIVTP

UhL [1] = biological target: T2, UhL (Ustilago hordei, UniProt I2G5F8); assay: spectrofluorimetric release of 4-methylumbelliferone by culture supernatant; assay type: biochemical; settings: pH 7, 0.05 M phosphate, 45 °C; crude culture supernatant
T2 construct: gene UHOR_02134; codon-optimized gene in pPICZalphaA (alpha-factor secretion), C-terminal 6xHis, 330 residues expressed, 35 kDa predicted / 36 kDa by Western blot, N-glycosylated; Pichia pastoris X-33 culture supernatant, not purified
T2 sequence (I2G5F8 20-343): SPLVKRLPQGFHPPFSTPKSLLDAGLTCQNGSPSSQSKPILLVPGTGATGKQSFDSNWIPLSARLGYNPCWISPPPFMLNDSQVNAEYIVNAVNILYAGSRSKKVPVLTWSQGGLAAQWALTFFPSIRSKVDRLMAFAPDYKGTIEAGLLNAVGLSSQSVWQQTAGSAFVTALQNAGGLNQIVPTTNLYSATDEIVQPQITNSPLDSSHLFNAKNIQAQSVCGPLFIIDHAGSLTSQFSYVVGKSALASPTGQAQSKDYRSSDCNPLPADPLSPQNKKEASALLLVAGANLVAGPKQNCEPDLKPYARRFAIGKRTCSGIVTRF

UhL [2] = biological target: T2, UhL; assay: hydrolysis halo on tributyrin agar plate of expressing clones (wild-type X-33 as control); assay type: cell-based; settings: BMMY agar, pH 6.0, 30 °C, 4 days, methanol induction

SMILES	relative activity (rLipB)	relative activity (UhL [1])	hydrolysis halo on tributyrin agar plate of expressing clones (wild-type X-33 as) (UhL [2])
CCCC(=O)Oc1ccc2c(C)cc(=O)oc2c1 [C4, MUF-butyrate]	rLipB activity was increased, as the ester substrate chain length increased up to C7		
CCCCCCC(=O)Oc1ccc2c(C)cc(=O)oc2c1 [MUF-7, MUF-heptanoate]	Both enzymes showed the highest activity with MUF-heptanoate (MUF-7)	Both enzymes showed the highest activity with MUF-heptanoate (MUF-7)	
CCCC(=O)OCC(COC(=O)CCC)OC(=O)CCC [tributyrin]			expressed in Pichia pastoris, showing activity against tributyrin triglyceride
